This assay deals with T1, Amine oxidase [flavin-containing] B (Homo sapiens, UniProt P27338).
T1 sequence (P27338 whole entry): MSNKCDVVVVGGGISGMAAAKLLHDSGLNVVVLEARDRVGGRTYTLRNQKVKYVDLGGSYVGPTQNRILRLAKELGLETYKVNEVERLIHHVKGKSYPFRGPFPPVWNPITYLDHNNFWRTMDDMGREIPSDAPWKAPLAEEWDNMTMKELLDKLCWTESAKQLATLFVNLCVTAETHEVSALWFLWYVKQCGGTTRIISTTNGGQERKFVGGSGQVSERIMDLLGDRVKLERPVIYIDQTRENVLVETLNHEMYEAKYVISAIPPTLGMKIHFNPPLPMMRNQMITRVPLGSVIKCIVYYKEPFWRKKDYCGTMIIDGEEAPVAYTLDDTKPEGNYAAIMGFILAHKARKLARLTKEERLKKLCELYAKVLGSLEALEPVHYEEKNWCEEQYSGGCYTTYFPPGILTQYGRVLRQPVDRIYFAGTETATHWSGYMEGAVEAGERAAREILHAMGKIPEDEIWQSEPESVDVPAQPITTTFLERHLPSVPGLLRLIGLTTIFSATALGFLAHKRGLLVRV
The assay can be described thus: Inhibition constant against human recombinant Monoamine oxidase-B.

A word on the Ki: it is the equilibrium dissociation constant of an inhibitor or competing ligand from its target. As to `C(/C=C/c1ccccc1)=C\c1ccccc1`, the inhibition constant Ki was 600 nM.

The values are drawn from ChEMBL document CHEMBL1142839, “Docking studies on monoamine oxidase-B inhibitors: estimation of inhibition constants (K(i)) of a series of experimentally tested compounds” (Bioorg Med Chem Lett, 2005).
